{
  "source": "ChEMBL document CHEMBL4842345",
  "about": "“Design, synthesis and biological evaluation of tanshinone IIA-based analogues: Potent inhibitors of microtubule formation and angiogenesis” (Eur J Med Chem, 2021)",
  "key": {"HepG2": {"test_system": "HepG2", "test": "Antiproliferative activity against human HepG2 cells assessed as reduction in cell viability measured after 72 hrs by MTT assay", "format": "functional, cell-based", "details": "HepG2, 72 h"}, "MCF7": {"test_system": "MCF7", "test": "Antiproliferative activity against human MCF7 cells assessed as reduction in cell viability measured after 72 hrs by MTT assay", "format": "functional, cell-based", "details": "MCF7, 72 h"}, "MGC-803": {"test_system": "MGC-803", "test": "Antiproliferative activity against human MGC-803 cells assessed as reduction in cell viability measured after 72 hrs by MTT assay", "format": "functional, cell-based", "details": "MGC-803, 72 h"}, "Tubulin (Homo sapiens) [1]": {"biological_target": "T1, Tubulin (Homo sapiens) (UniProt P68371+Q9H4B7+P0DPH7+P68366+Q13509+Q71U36+P04350+Q3ZCM7+P07437+P68363+Q9BQE3+Q6PEY2+Q13885+Q9BVA1+Q9BUF5)", "test": "Inhibition of tubulin (unknown origin) polymerization assessed as decrease in fluorescence intensity at 12 uM by fluorescence based assay", "format": "protein-complex assay"}, "Tubulin (Homo sapiens) [2]": {"biological_target": "T1, Tubulin (Homo sapiens)", "test": "Induction of microtubule distruption in human A549 cells assessed as spindle shaped microtubule structure at 2.5 to 10 uM measured after 48 hrs by immunofluorescence based laser scanning confocal microscopic analysis", "format": "cell-based", "details": "dose 2.5-10 µM"}, "Tubulin (Homo sapiens) [3]": {"biological_target": "T1, Tubulin (Homo sapiens)", "test": "Induction of microtubule distruption in human A549 cells assessed as reduction in number of living cells at 2.5 to 10 uM measured after 48 hrs by immunofluorescence based laser scanning confocal microscopic analysis", "format": "cell-based", "details": "dose 2.5-10 µM"}, "A549 [4]": {"test_system": "A549", "test": "Antiproliferative activity against human A549 cells assessed as reduction in cell viability measured after 72 hrs by MTT assay", "format": "functional, cell-based", "details": "A549, 72 h"}, "A549 [5]": {"test_system": "A549", "test": "Induction of apoptosis in human A549 cells assessed as live cells at 2.5 uM measured after 48 hrs by Annexin V-FITC/PI staining based flow cytometry analysis (Rvb= 97.1%)", "format": "functional"}, "A549 [6]": {"test_system": "A549", "test": "Induction of apoptosis in human A549 cells assessed as early apoptotic cells at 2.5 uM measured after 48 hrs by Annexin V-FITC/PI staining based flow cytometry analysis (Rvb= 0.72%)", "format": "functional"}, "A549 [7]": {"test_system": "A549", "test": "Induction of apoptosis in human A549 cells assessed as late apoptotic cells at 2.5 uM measured after 48 hrs by Annexin V-FITC/PI staining based flow cytometry analysis (Rvb= 1.47%)", "format": "functional"}, "A549 [8]": {"test_system": "A549", "test": "Induction of apoptosis in human A549 cells assessed as live cells at 5 uM measured after 48 hrs by Annexin V-FITC/PI staining based flow cytometry analysis (Rvb= 97.1%)", "format": "functional"}, "A549 [9]": {"test_system": "A549", "test": "Induction of apoptosis in human A549 cells assessed as late apoptotic cells at 5 uM measured after 48 hrs by Annexin V-FITC/PI staining based flow cytometry analysis (Rvb= 1.47%)", "format": "functional"}, "A549 [10]": {"test_system": "A549", "test": "Induction of apoptosis in human A549 cells assessed as dead cells at 5 uM measured after 48 hrs by Annexin V-FITC/PI staining based flow cytometry analysis (Rvb= 0.67%)", "format": "functional"}, "A549 [11]": {"test_system": "A549", "test": "Induction of apoptosis in human A549 cells assessed as live cells at 10 uM measured after 48 hrs by Annexin V-FITC/PI staining based flow cytometry analysis (Rvb= 97.1%)", "format": "functional"}, "A549 [12]": {"test_system": "A549", "test": "Induction of apoptosis in human A549 cells assessed as early apoptotic cells at 10 uM measured after 48 hrs by Annexin V-FITC/PI staining based flow cytometry analysis (Rvb= 0.72%)", "format": "functional"}, "A549 [13]": {"test_system": "A549", "test": "Induction of apoptosis in human A549 cells assessed as late apoptotic cells at 10 uM measured after 48 hrs by Annexin V-FITC/PI staining based flow cytometry analysis (Rvb= 1.47%)", "format": "functional"}, "A549 [14]": {"test_system": "A549", "test": "Induction of apoptosis in human A549 cells assessed as dead cells at 10 uM measured after 48 hrs by Annexin V-FITC/PI staining based flow cytometry analysis (Rvb= 0.67%)", "format": "functional"}, "A549 [15]": {"test_system": "A549", "test": "Induction of apoptosis in human A549 cells assessed as activation of the initiator caspase-9 measured after 48 hrs by western blot analysis", "format": "functional, cell-based"}, "A549 [16]": {"test_system": "A549", "test": "Induction of apoptosis in human A549 cells assessed as activation of executioner caspase-3 at 2.5 to 10 uM measured after 48 hrs by western blot analysis", "format": "functional, cell-based", "details": "dose 2.5-10 µM"}, "A549 [17]": {"test_system": "A549", "test": "Induction of apoptosis in human A549 cells assessed as cleavage of PARP at 2.5 to 10 uM measured after 48 hrs by western blot analysis", "format": "functional, cell-based", "details": "dose 2.5-10 µM"}, "A549 [18]": {"test_system": "A549", "test": "Antiproliferative activity against human A549 cells assessed as decrease in DNA synthesis at 2.5 to 10 uM by Edu incorporation assay", "format": "functional, cell-based", "details": "dose 2.5-10 µM"}, "A549 [19]": {"test_system": "A549", "test": "Induction of cell cycle arrest in human A549 cells assessed as increase in number of cells accumulation at G2/M phase at 10 uM measured after 48 hrs by flow cytometry analysis (Rvb= 16.72%)", "format": "functional"}, "A549 [20]": {"test_system": "A549", "test": "Induction of cell cycle arrest in human A549 cells assessed as accumulation of cells at G1 phase at 2.5 uM measured after 48 hrs by flow cytometry analysis (Rvb= 60.29%)", "format": "functional"}, "A549 [21]": {"test_system": "A549", "test": "Induction of cell cycle arrest in human A549 cells assessed as accumulation of cells at G1 phase at 10 uM measured after 48 hrs by flow cytometry analysis (Rvb= 60.29%)", "format": "functional"}, "HUVEC [22]": {"test_system": "HUVEC", "test": "Antivascular activity against HUVEC cells assessed as inhibition of capillary-like tubule formation measured after 6 hrs by matrigel matrix based microscopic analysis", "format": "functional, cell-based", "details": "Homo sapiens, dose 0.25-1 µM"}, "HUVEC [23]": {"test_system": "HUVEC", "test": "Antivascular activity against HUVEC cells assessed as reduction in number of branching points measured after 6 hrs by imaging analysis", "format": "functional, cell-based", "details": "Homo sapiens, dose 0.25-1 µM"}, "HUVEC [24]": {"test_system": "HUVEC", "test": "Antivascular activity against HUVEC cells assessed as segment length measured after 6 hrs by imaging analysis", "format": "functional, cell-based", "details": "Homo sapiens, dose 0.25-1 µM"}, "HUVEC [25]": {"test_system": "HUVEC", "test": "Antivascular activity against HUVEC cells assessed as reduction in area and number of meshes measured after 6 hrs by imaging analysis", "format": "functional, cell-based", "details": "Homo sapiens, dose 0.25-1 µM"}, "HUVEC [26]": {"test_system": "HUVEC", "test": "Antivascular activity against HUVEC cells assessed as reduction in area covered by HUVECs measured after 6 hrs by imaging analysis", "format": "functional, cell-based", "details": "Homo sapiens, dose 0.25-1 µM"}, "HUVEC [27]": {"test_system": "HUVEC", "test": "Inhibition of cell migration in HUVEC cells assessed as decrease in closure of wound scratching measured after 48 hrs by wound healing assay", "format": "functional, cell-based", "details": "Homo sapiens, dose 0.25-1 µM"}, "HUVEC [28]": {"test_system": "HUVEC", "test": "Inhibition of cell migration in HUVEC cells assessed as decrease in number of migrated endothelial cells at 0.25 to 1 uM measured after 48 hrs by crystal violet staining based transwell assay", "format": "functional", "details": "Homo sapiens, dose 0.25-1 µM"}, "Danio rerio [29]": {"species_on_record": "Danio rerio", "test": "Antiangiogenic activity in transgenic Tg(flk:EGFP) zebra fish embryos assessed as reduction in number of intersegmental vessels measured at 30 hrs post fertilization by confocal fluorescence microscopy analysis", "format": "functional, organism-based", "details": "dose 1-4 µM"}, "Danio rerio [30]": {"species_on_record": "Danio rerio", "test": "Antiangiogenic activity in transgenic Tg(flk:EGFP) zebra fish embryos assessed as reduction in length of intersegmental vessels measured at 30 hrs post fertilization by confocal fluorescence microscopy analysis", "format": "functional, organism-based", "details": "dose 1-4 µM"}, "Danio rerio [31]": {"species_on_record": "Danio rerio", "test": "Antiangiogenic activity in transgenic Tg(flk:EGFP) zebra fish embryos assessed as disruption of intersegmental vessels formation measured at 30 hrs post fertilization by confocal fluorescence microscopy analysis", "format": "functional, organism-based"}, "[32]": {"test": "Kinetic solubility of the compound at pH 2 by nephelometry", "format": "physicochemical", "details": "buffer, read-out: Kinetic_solubility"}, "[33]": {"test": "Kinetic solubility of the compound at pH 6.5 by nephelometry", "format": "physicochemical", "details": "buffer, read-out: Kinetic_solubility"}, "[34]": {"test": "Intrinsic clearance in human liver microsome", "format": "ADME, microsomes", "details": "microsomes"}, "Tubulin (Homo sapiens) [35]": {"biological_target": "T1, Tubulin (Homo sapiens)", "test": "Displacement of [3H]colchicine binding to tubulin (unknown origin)", "format": "protein-complex assay"}},
  "note": "pIC50: −log10 of the molar value. Calls of active or inactive are those of the source. The rule behind the calls is not given here.",
  "data": [
    {"smiles": "COc1ccc2c(c1)-c1occ(C)c1C(=O)C2=O", "values": [
      {"measurement": "pIC50", "setting": "HepG2", "value": 5.70},
      {"measurement": "pIC50", "setting": "MCF7", "value": 5.50},
      {"measurement": "pIC50", "setting": "MGC-803", "value": 6.08},
      {"measurement": "inhibition", "setting": "Tubulin (Homo sapiens) [1]", "value": "Active"},
      {"measurement": "Activity", "setting": "Tubulin (Homo sapiens) [2]", "value": "inactive"},
      {"measurement": "Activity", "setting": "Tubulin (Homo sapiens) [3]", "value": "Active"},
      {"measurement": "pIC50", "setting": "A549 [4]", "value": 6.49},
      {"measurement": "Activity", "setting": "A549 [5]", "value": 94.5, "unit": "%"},
      {"measurement": "Activity", "setting": "A549 [6]", "value": 1.55, "unit": "%"},
      {"measurement": "Activity", "setting": "A549 [7]", "value": 3.28, "unit": "%"},
      {"measurement": "Activity", "setting": "A549 [8]", "value": 82.8, "unit": "%"},
      {"measurement": "Activity", "setting": "A549 [9]", "value": 5.58, "unit": "%"},
      {"measurement": "Activity", "setting": "A549 [10]", "value": 1.28, "unit": "%"},
      {"measurement": "Activity", "setting": "A549 [11]", "value": 11.1, "unit": "%"},
      {"measurement": "Activity", "setting": "A549 [12]", "value": 80.2, "unit": "%"},
      {"measurement": "Activity", "setting": "A549 [13]", "value": 8.19, "unit": "%"},
      {"measurement": "Activity", "setting": "A549 [14]", "value": 0.5, "unit": "%"},
      {"measurement": "Activity", "setting": "A549 [15]", "value": "Dose-Dependent Effect"},
      {"measurement": "Activity", "setting": "A549 [16]", "value": "Active"},
      {"measurement": "Activity", "setting": "A549 [17]", "value": "Active"},
      {"measurement": "Activity", "setting": "A549 [18]", "value": "Active"},
      {"measurement": "Activity", "setting": "A549 [19]", "value": 32.19, "unit": "%"},
      {"measurement": "Activity", "setting": "A549 [20]", "value": 61.93, "unit": "%"},
      {"measurement": "Activity", "setting": "A549 [21]", "value": 55.29, "unit": "%"},
      {"measurement": "Activity", "setting": "HUVEC [22]", "value": "Active"},
      {"measurement": "Activity", "setting": "HUVEC [23]", "value": "Dose-Dependent Effect"},
      {"measurement": "Activity", "setting": "HUVEC [24]", "value": "Dose-Dependent Effect"},
      {"measurement": "Activity", "setting": "HUVEC [25]", "value": "Dose-Dependent Effect"},
      {"measurement": "Activity", "setting": "HUVEC [26]", "value": "Dose-Dependent Effect"},
      {"measurement": "inhibition", "setting": "HUVEC [27]", "value": "Dose-Dependent Effect"},
      {"measurement": "inhibition", "setting": "HUVEC [28]", "value": "Active"},
      {"measurement": "Activity", "setting": "Danio rerio [29]", "value": "Dose-Dependent Effect"},
      {"measurement": "Activity", "setting": "Danio rerio [30]", "value": "Dose-Dependent Effect"},
      {"measurement": "Activity", "setting": "Danio rerio [31]", "value": "Dose-Dependent Effect"},
      {"measurement": "solubility kinetic", "setting": "[32]", "value": 250, "unit": "µg/mL"},
      {"measurement": "solubility kinetic", "setting": "[33]", "value": 405, "unit": "µg/mL"},
      {"measurement": "CLH", "setting": "[34]", "value": 175, "unit": "µL/min/mg"},
      {"measurement": "Activity", "setting": "Tubulin (Homo sapiens) [35]", "value": "Active"}
    ]}
  ]
}
